According to patent publication US12404289B2 (Gilead Sciences, Inc., priority 2020, dated 2025):
Where two headings read alike, the source gives them in different places.

Legend:
Assay type in all cases: cell-based
[1] = CC50 assay (cytopathology in HEp-2 cells); settings: human, HEp-2 cells, 4 days, CellTiter-Glo; Table 1; read-out: RSV CC50
Procedure: (§1) The cytopathology of compounds in HEp-2 cells is determined in the following manner. HEp-2 cells are suspended in DMEM+GlutaMAX (supplemented with 10% FBS and 1% Penicillin/Streptomycin) and seeded into 96 well plates (3×10^3/well). After a 4-hour incubation at 37° C.+5% CO2, three-fold serial dilutions of compounds are added to each well using an HP D300e digital dispenser. The cells are then incubated for 4 days at 37° C. and 5% CO2. The final volume in each well is 200 μL. Untreated wells are included as controls for 100% cell viability, while compounds treated with 5 uM puromycin are included as controls for 0% viability. Following the incubation, 100 μL of culture supernatant is removed from each well and replaced with 100 μL of CellTiter-Glo reagent (Promega, Madison, WI, Cat #G7573). The plates are then rocked for 2 minutes followed by a 10-minute incubation at 25° C. Compound-induced cytopathic effect is then assessed by measuring luminescence signal using and Envision plate reader. Values are normalized to the untreated DMSO and puromycin-treated controls (as 100% and 0% viability, respectively) and data is fit using non-linear regression analysis using XLfit4. The CC50 value for each compound is then determined as the concentration reducing cell viability by 50%.

[2] = test system: Respiratory syncytial virus (RSV) strain A2; assay: Hep-2 RSV2 384-well assay (EC50-HEP2-384); settings: HEp-2 cells, RSV A2, MOI=4, 4 days, Table 1
SARS-CoV-2 = SARS-CoV-2 antiviral assay (A549-hACE2, Nano luciferase); settings: A549-hACE2 cells, SARS-CoV2-Nano, MOI 0.025, 48 h
[3] = test system: Respiratory syncytial virus recombinant with luciferase (RSV-Luc5); assay: microbe, parasite or virus in culture; settings: human respiratory syncytial virus, HEp-2, 72 h, read-out: EC50 RSVFluc-Hep2 384, HEp-2 cells, RSV-Luc5, MOI=0.5, 3 days, 384 well, One-Glo; Table 1
[4] = test system: Respiratory syncytial virus (RSV) strain A2; assay: RSV antiviral assay (HEp-2, 96 well); settings: Table 1
[5] = test system: Recombinant respiratory syncytial virus expressing the firefly luciferase protein (RSV-Fluc); assay: microbe, parasite or virus in culture; settings: Table 4
HEp-2 cells = assay: CC50 assay (cytopathology in HEp-2 cells); settings: HEp-2 cells, 4 days, CellTiter-Glo; Table 1; read-out: RSV CC50
Procedure: as §1

[6] = human respiratory syncytial virus, HEp-2, 96 h
[7] = Severe acute respiratory syndrome coronavirus 2, 48 h, Table 1, read-out: SARS-CoV-2 EC50
[8] = Severe acute respiratory syndrome coronavirus 2, 48 h, Table 4, read-out: EC50 SARS CoV2
[9] = human respiratory syncytial virus, HEp-2, 96 h, read-out: EC50-RSV-HEP-2-96, HEp-2 cells, RSV A2, MOI=4, 4 days, 96 well, CellTiter-Glo
[10] = human respiratory syncytial virus, NHBE, 72 h, read-out: EC50 RSVFluc NHBE 96, NHBE cells, RSV-Fluc, MOI of 0.1, three days, 96 well
[11] = read-out: EC50 RSVFluc NHBE 96, NHBE cells, RSV-Fluc, MOI of 0.1, three days, 96 well

Structure (SMILES)	CC50 at 4 days [1]	EC50 [2, 6]	EC50 (SARS-CoV-2; [7])	EC50 (SARS-CoV-2; [8])	EC50 [3]	EC50 [4, 9]	EC50 [5, 10]	CC50 (HEp-2 cells)	EC50 ([4]; read-out: EC50-RSV-HEP-2-96, HEp-2 cells, RSV A2, MOI=4, 4 days, 96 well, CellTiter-Glo)	EC50 [2]	EC50 [5, 11]	EC50 (SARS-CoV-2; Table 4, read-out: EC50 SARS CoV2)
CCC(CC)COC(=O)[C@H](C)NP(=O)(OC[C@H]1O[C@@](C#N)(c2ccc3c(N)ncnn23)[C@H](O)[C@@H]1O)Oc1ccc(C(C)(C)C)cc1 (mixture of isomers) [Example 13, 2-ethylbutyl (2S)-2-[[[(2R,5R)-5-(4-aminopyrrolo[2,1-f][1,2,4]triazin-7-yl)-5-cyano-3,4-dihydroxy-tetrahydrofuran-2-yl]methoxy-(4-tert-butylphenoxy)phosphoryl]amino]propanoate]	3800 nM	58.8 nM	88.9 nM	319 nM	20.1 nM	34.5 nM	2.92 nM					
CCC(CC)COC(=O)[C@H](C)NP(=O)(OC[C@H]1O[C@@](C#N)(c2ccc3c(N)ncnn23)[C@H](O)[C@@H]1O)Oc1cc(C)ccc1C(C)C (single isomer, unassigned) [Example 26a]						1160 nM		> 45000 nM				
CCC(CC)COC(=O)[C@H](C)NP(=O)(OC[C@H]1O[C@@](C#N)(c2ccc3c(N)ncnn23)[C@H](O)[C@@H]1O)Oc1cc(C)ccc1C(C)C (single isomer, unassigned) [Example 26b]								2400 nM	603 nM			
CCC(CC)COC(=O)[C@H](C)N[P@](=O)(OC[C@H]1O[C@@](C#N)(c2ccc3c(N)ncnn23)[C@H](OC(=O)C(C)C)[C@@H]1OC(=O)C(C)C)Oc1ccccc1 [Example 1, (2R,3R,4R,5R)-2-(4-aminopyrrolo[2,1-f][1,2,4]triazin-7-yl)-2-cyano-5-((((S)—(((S)-1-(2-ethylbutoxy)-1-oxopropan-2-yl)amino)(phenoxy)phosphoryl)oxy)methyl) tetrahydrofuran-3,4-diyl bis(2-methylpropanoate)]	5490 nM			338 nM		122 nM	6.56 nM					
CCC(CC)COC(=O)[C@H](C)N[P@](=O)(OC[C@H]1O[C@@](C#N)(c2ccc3c(N)ncnn23)[C@H](OC(C)=O)[C@@H]1OC(C)=O)Oc1ccccc1 [Example 2, (2R,3R,4R,5R)-2-(4-aminopyrrolo[2,1-f][1,2,4]triazin-7-yl)-2-cyano-5-((((S)—(((S)-1-(2-ethylbutoxy)-1-oxopropan-2-yl)amino)(phenoxy)phosphoryl)oxy)methyl) tetrahydrofuran-3,4-diyl Diacetate]	8410 nM			102 nM		84.4 nM	4.53 nM					
CCC(=O)O[C@H]1[C@@H](OC(=O)CC)[C@](C#N)(c2ccc3c(N)ncnn23)O[C@@H]1CO[P@@](=O)(N[C@@H](C)C(=O)OCC(CC)CC)Oc1ccccc1 [Example 3, (2R,3R,4R,5R)-2-(4-aminopyrrolo[2,1-f][1,2,4]triazin-7-yl)-2-cyano-5-((((S)—(((S)-1-(2-ethylbutoxy)-1-oxopropan-2-yl)amino)(phenoxy)phosphoryl)oxy)methyl) tetrahydrofuran-3,4-diyl Dipropionate]	5820 nM		113 nM	129 nM	18.3 nM	44.1 nM	5.55 nM					
CCC(CC)COC(=O)[C@H](C)NP(=O)(OC[C@H]1O[C@@](C#N)(c2ccc3c(N)ncnn23)[C@H](OC(=O)C(C)C)[C@@H]1OC(=O)C(C)C)Oc1ccc(C(C)(C)C)cc1 (some centres unmarked) [Example 14]	2730 nM			186 nM		29 nM	3.72 nM					
CCOC(=O)[C@H](C)NP(=O)(OC[C@H]1O[C@@](C#N)(c2ccc3c(N)ncnn23)[C@H](OC(=O)C(C)C)[C@@H]1OC(=O)C(C)C)Oc1ccc(C(C)(C)C)cc1 (stereo partly drawn) [Example 18, (2R,3R,4R,5R)-2-(4-aminopyrrolo[2,1-f][1,2,4]triazin-7-yl)-5-((((4-(tert-butyl)phenoxy)(((S)-1-ethoxy-1-oxopropan-2-yl)amino)phosphoryl)oxy)methyl)-2-cyanotetrahydrofuran-3,4-diyl bis(2-methylpropanoate)]	2620 nM	83.4 nM		210 nM		7.75 nM	6.69 nM					
CC(C)C(=O)O[C@H]1[C@@H](OC(=O)C(C)C)[C@](C#N)(c2ccc3c(N)ncnn23)O[C@@H]1COP(=O)(N[C@@H](C)C(=O)OC1CCC1)Oc1ccccc1 (stereo partly drawn) [Example 21, (2R,3R,4R,5R)-2-(4-Aminopyrrolo[2,1-f][1,2,4]triazin-7-yl)-2-cyano-5-((((((S)-1-cyclobutoxy-1-oxopropan-2-yl)amino)(phenoxy)phosphoryl)oxy)methyl) tetrahydrofuran-3,4-diyl bis(2-methylpropanoate)]	3110 nM		123 nM	234 nM	29.4 nM	19.8 nM				58.8 nM	5.36 nM	
CCC(CC)COC(=O)[C@H](C)N[P@](=O)(OC[C@H]1O[C@@](C#N)(c2ccc3c(=N)n(COP(=O)(O)O)cnn23)[C@H](O)[C@@H]1O)Oc1ccccc1 [Example 28, 2-Ethylbutyl ((S)-(((2R,3S,4R,5R)-5-cyano-3,4-dihydroxy-5-(4-imino-3-((phosphonooxy)methyl)-3,4-dihydropyrrolo[2,1-f][1,2,4]triazin-7-yl)tetrahydrofuran-2-yl)methoxy)(phenoxy)phosphoryl)-L-alaninate]	7450 nM			1620 nM	21.5 nM	31 nM	35 nM					
C[C@H](NP(=O)(OC[C@H]1O[C@@](C#N)(c2ccc3c(N)ncnn23)[C@H](O)[C@@H]1O)Oc1ccc(C(C)(C)C)cc1)C(=O)OC1CC2(CCC2)C1 (stereo partly drawn) [Example 29, Spiro[3.3]heptan-2-yl (2S)-2-[[[(2R,3S,4R,5R)-5-(4-aminopyrrolo[2,1-f][1,2,4]triazin-7-yl)-5-cyano-3,4-dihydroxy-tetrahydrofuran-2-yl]methoxy-(4-tert-butylphenoxy)phosphoryl]amino]propanoate]	2650 nM	62.2 nM	65.1 nM		36.9 nM	10.7 nM	3.93 nM					123 nM
CC(=O)O[C@H]1[C@@H](OC(C)=O)[C@](C#N)(c2ccc3c(N)ncnn23)O[C@@H]1COP(=O)(N[C@@H](C)C(=O)OC1CC2(CCC2)C1)Oc1ccc(C(C)(C)C)cc1 (stereo partly drawn) [Example 30, Spiro[3.3]heptan-2-yl (2S)-2-[[(4-tert-butylphenoxy)-[[(2R,3R,4R,5R)-3,4-diacetoxy-5-(4-aminopyrrolo[2,1-f][1,2,4]triazin-7-yl)-5-cyano-tetrahydrofuran-2-yl]methoxy]phosphoryl]amino]propanoate]	2310 nM	39.7 nM		202 nM	27.1 nM	7.3 nM					4.49 nM	
